According to PubChem BioAssay AID330 (DTP/NCI, 2004):
Where “and” joins values, the source holds several entries; their conditions need not be identical. Equal entries are not always repeated. Inconclusive results and toxic doses are left out.

Test system: P388 leukemia ip, CD2F1 mice, survival T/C
Experiment: NCI In Vivo Anticancer Drug Screen. Data for tumor model P388 Leukemia (intraperitoneal) in CD2F1 (CDF1) mice
Settings: endpoint: median survival time, higher = longer survival
Procedure, shortened: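 Mice carrying the transplanted tumor received test compound or vehicle. Survival was recorded in each group, and the value is the treated-group measurement divided by that of the vehicle-treated control group.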

[1] = dose: 100.0 mg/kg/injection, schedule: Q01DX001 (ip), vehicle: Klucel (hydroxypropylcellulose) (HPC)
[2] = dose: 200.0 mg/kg/injection, schedule: Q01DX001 (ip), vehicle: Klucel (hydroxypropylcellulose) (HPC)
[3] = dose: 400.0 mg/kg/injection, schedule: Q01DX001 (ip), vehicle: Klucel (hydroxypropylcellulose) (HPC)
[4] = dose: 50.0 mg/kg/injection, schedule: Q01DX005 (ip), vehicle: saline with Tween-80
[5] = dose: 100.0 mg/kg/injection, schedule: Q01DX005 (ip), vehicle: saline with Tween-80
[6] = dose: 200.0 mg/kg/injection, schedule: Q01DX005 (ip), vehicle: saline with Tween-80
[7] = dose: 100.0 mg/kg/injection, schedule: Q01DX009 (ip), vehicle: saline with Tween-80
[8] = dose: 100.0 mg/kg/injection, schedule: Q04DX003 (ip), vehicle: saline with Tween-80
[9] = dose: 200.0 mg/kg/injection, schedule: Q01DX009 (ip), vehicle: saline with Tween-80
[10] = dose: 200.0 mg/kg/injection, schedule: Q04DX003 (ip), vehicle: saline with Tween-80
[11] = dose: 12.5 mg/kg/injection, schedule: Q01DX009 (ip), vehicle: saline with Tween-80
[12] = dose: 25.0 mg/kg/injection, schedule: Q01DX009 (ip), vehicle: saline with Tween-80
[13] = dose: 50.0 mg/kg/injection, schedule: Q01DX009 (ip), vehicle: saline with Tween-80
[14] = dose: 25.0 mg/kg/injection, schedule: Q01DX009 (ip), vehicle: Klucel (hydroxypropylcellulose) (HPC)
[15] = dose: 50.0 mg/kg/injection, schedule: Q01DX009 (ip), vehicle: Klucel (hydroxypropylcellulose) (HPC)
[16] = dose: 100.0 mg/kg/injection, schedule: Q04DX002 (ip), vehicle: Klucel (hydroxypropylcellulose) (HPC)
[17] = dose: 200.0 mg/kg/injection, schedule: Q04DX002 (ip), vehicle: Klucel (hydroxypropylcellulose) (HPC)
[18] = dose: 400.0 mg/kg/injection, schedule: Q04DX002 (ip), vehicle: Klucel (hydroxypropylcellulose) (HPC)
[19] = dose: 6.25 mg/kg/injection, schedule: Q01DX009 (ip), vehicle: saline with Tween-80
[20] = dose: 6.25 mg/kg/injection, schedule: Q01DX001 (ip), vehicle: saline with Tween-80
[21] = dose: 12.5 mg/kg/injection, schedule: Q01DX001 (ip), vehicle: saline with Tween-80
[22] = dose: 25.0 mg/kg/injection, schedule: Q01DX001 (ip), vehicle: saline with Tween-80

## Cc1nn2c(-c3snnc3C)nnc2s1
[1]
  T/C: 99 % of control
[2]
  T/C: 100 % of control
[3]
  T/C: 100 % of control

## O=C1CN(CCCN2c3ccccc3Sc3ccc(C(F)(F)F)cc32)CC(=O)N1
[4]
  T/C: 103 % of control
[5]
  T/C: 100 % of control
[6]
  T/C: 104 % of control

## O=C(O)/C=C/C(=O)NCc1ccco1
[7]
  T/C: 100 % of control
[8]
  T/C: 90 % of control
[9]
  T/C: 109 % of control
[10]
  T/C: 95 % of control
dose: 400.0 mg/kg/injection, schedule: Q01DX009 (ip), vehicle: saline with Tween-80
  T/C: 100 % of control
dose: 400.0 mg/kg/injection, schedule: Q04DX003 (ip), vehicle: saline with Tween-80
  T/C: 100 % of control

## Oc1cccnc1[Se]
dose: 60.0 mg/kg/injection, schedule: Q01DX005 (ip), vehicle: Klucel (hydroxypropylcellulose) (HPC)
  T/C: 112 % of control
dose: 120.0 mg/kg/injection, schedule: Q01DX005 (ip), vehicle: Klucel (hydroxypropylcellulose) (HPC)
  T/C: 106 % of control
dose: 240.0 mg/kg/injection, schedule: Q01DX005 (ip), vehicle: Klucel (hydroxypropylcellulose) (HPC)
  T/C: 110 % of control

## Cn1nnnc1NC#N
[1]
  T/C: 107 % of control
[2]
  T/C: 113 % of control
[3]
  T/C: 108 % of control

## C=CC(C#N)(C=C)C=C
[11]
  T/C: 104 % of control
[12]
  T/C: 103 % of control
[13]
  T/C: 108 % of control

## COc1cc2c(c(OC)c1OC)-c1ccc(OC)c(=O)cc1[C@@H](N(C)C=O)CC2
dose: 1.25 mg/kg/injection, schedule: Q01DX009 (ip), vehicle: Klucel (hydroxypropylcellulose) (HPC)
  T/C: 171 % of control

## CCCCCC(CN(C)C)C(O)CCc1ccc(Cl)c(Cl)c1 (stereo not given)
[14]
  T/C: 106 % of control
[15]
  T/C: 98 % of control
dose: 100.0 mg/kg/injection, schedule: Q01DX009 (ip), vehicle: Klucel (hydroxypropylcellulose) (HPC)
  T/C: 104 % of control

## C=CCN(CC=C)C(=O)CCN1CC1
dose: 2.5 mg/kg/injection, schedule: Q04DX003 (ip), vehicle: saline
  T/C: 108 % of control
dose: 5.0 mg/kg/injection, schedule: Q04DX003 (ip), vehicle: saline
  T/C: 87 % of control
dose: 10.0 mg/kg/injection, schedule: Q04DX003 (ip), vehicle: saline
  T/C: 104 % of control

## Cc1ccc2c(O)c3c(cc2c1O)C(=O)c1ccccc1C3=O
[4]
  T/C: 100 % of control
[5]
  T/C: 107 % of control
[6]
  T/C: 109 % of control

## O=S(c1ccccc1)c1ccccc1C(O)(C(F)(F)F)C(F)(F)F (stereo not given)
[16]
  T/C: 96 % of control
[17]
  T/C: 100 % of control
[18]
  T/C: 101 % of control

## [Cl][Sn]1([Cl])[N]2CCCCC2C2CCCC[N]21 (stereo not given)
[8]
  T/C: 97 % of control
[10]
  T/C: 99 % of control

## COc1ccc(C2=C(Cl)C(=O)N(c3ccc(Cl)cc3)C(=O)C2(Cl)Cl)cc1
[16]
  T/C: 101 % of control
[17]
  T/C: 94 % of control
[18]
  T/C: 97 % of control

## Clc1ccccc1C=NCC1CCC(CN=Cc2ccccc2Cl)CC1 (stereo not given)
[19]
  T/C: 99 % of control
[11]
  T/C: 101 % of control
[12]
  T/C: 100 % of control
[13]
  T/C: 116 % of control

## Nc1nccc(C(=O)c2ccccc2O)n1
dose: 50.0 mg/kg/injection, schedule: Q01DX009 (ip), vehicle: saline
  T/C: 98 % of control
dose: 100.0 mg/kg/injection, schedule: Q01DX009 (ip), vehicle: saline
  T/C: 95 % of control
dose: 200.0 mg/kg/injection, schedule: Q01DX009 (ip), vehicle: saline
  T/C: 99 % of control

## NC(=O)/C=C/C(=O)NC(=O)Cc1ccccc1
dose: 1.5 mg/kg/injection, schedule: Q01DX009 (ip), vehicle: saline with Tween-80
  T/C: 109 % of control
dose: 3.0 mg/kg/injection, schedule: Q01DX009 (ip), vehicle: saline with Tween-80
  T/C: 110 % of control and 119 % of control
dose: 6.0 mg/kg/injection, schedule: Q01DX009 (ip), vehicle: saline with Tween-80
  T/C: 109 % of control and 116 % of control

## Cc1ccc(NP2(Nc3ccc(C)cc3)=NP(Nc3ccc(C)cc3)(Nc3ccc(C)cc3)=NP(Nc3ccc(C)cc3)(Nc3ccc(C)cc3)=NP(Nc3ccc(C)cc3)(Nc3ccc(C)cc3)=N2)cc1
dose: 50.0 mg/kg/injection, schedule: Q01DX005 (ip), vehicle: Klucel (hydroxypropylcellulose) (HPC)
  T/C: 101 % of control
dose: 100.0 mg/kg/injection, schedule: Q01DX005 (ip), vehicle: Klucel (hydroxypropylcellulose) (HPC)
  T/C: 99 % of control
dose: 200.0 mg/kg/injection, schedule: Q01DX005 (ip), vehicle: Klucel (hydroxypropylcellulose) (HPC)
  T/C: 101 % of control

## COC(=O)/C=C\C=C(\CBr)C(=O)OC
[19]
  T/C: 91 % of control
dose: 6.25 mg/kg/injection, schedule: Q04DX003 (ip), vehicle: saline
  T/C: 110 % of control
[11]
  T/C: 95 % of control
dose: 12.5 mg/kg/injection, schedule: Q04DX003 (ip), vehicle: saline
  T/C: 110 % of control
[12]
  T/C: 91 % of control
dose: 25.0 mg/kg/injection, schedule: Q04DX003 (ip), vehicle: saline
  T/C: 110 % of control

## C/C(N=NC(=S)N1CC2CCC(CC2)C1)=C1\C=CC=CN1O
[4]
  T/C: 105 % of control
[5]
  T/C: 98 % of control
[6]
  T/C: 101 % of control

## OC1CCC2SC1CCC2O (stereo not given)
dose: 50.0 mg/kg/injection, schedule: Q01DX009 (ip), vehicle: water
  T/C: 95 % of control
dose: 100.0 mg/kg/injection, schedule: Q01DX009 (ip), vehicle: water
  T/C: 102 % of control
dose: 200.0 mg/kg/injection, schedule: Q01DX009 (ip), vehicle: water
  T/C: 108 % of control
dose: 400.0 mg/kg/injection, schedule: Q01DX009 (ip), vehicle: water
  T/C: 100 % of control

## c1ccc2c(c1)Cc1ccnnc1-2
[4]
  T/C: 103 % of control
[5]
  T/C: 103 % of control
[6]
  T/C: 92 % of control

## O=C(Nc1ccccc1)Oc1ccc(/C=N/Sc2cccc([N+](=O)[O-])c2)cc1
[13]
  T/C: 87 % of control
[7]
  T/C: 101 % of control
[9]
  T/C: 106 % of control

## OC(c1cc(C(F)(F)F)nc2c(Cl)cc(Cl)cc12)C1CCCCN1 (stereo not given)
[13]
  T/C: 105 % of control
[7]
  T/C: 106 % of control

## Cn1c(=O)c2c(Nc3ccccc3)ncnc2n(C)c1=O
dose: 35.0 mg/kg/injection, schedule: Q01DX005 (ip), vehicle: saline with Tween-80
  T/C: 87 % of control
dose: 70.0 mg/kg/injection, schedule: Q01DX005 (ip), vehicle: saline with Tween-80
  T/C: 87 % of control

## O=C/C=C/C=O
dose: 3.13 mg/kg/injection, schedule: Q01DX001 (ip), vehicle: saline with Tween-80
  T/C: 102 % of control
[20]
  T/C: 102 % of control
[21]
  T/C: 102 % of control
[22]
  T/C: 114 % of control

## O=C1CC2C=CC2C1 (stereo not given)
dose: 6.25 mg/kg/injection, schedule: Q01DX009 (ip), vehicle: saline
  T/C: 113 % of control
dose: 12.5 mg/kg/injection, schedule: Q01DX009 (ip), vehicle: saline
  T/C: 103 % of control
dose: 25.0 mg/kg/injection, schedule: Q01DX009 (ip), vehicle: saline
  T/C: 103 % of control
[9]
  T/C: 95 % of control

## CCOC(=O)c1c(C)[nH]c(-c2ccccc2)c1NS(=O)(=O)c1ccc(N)cc1
dose: 60.0 mg/kg/injection, schedule: Q01DX005 (ip), vehicle: saline with Tween-80
  T/C: 93 % of control
dose: 120.0 mg/kg/injection, schedule: Q01DX005 (ip), vehicle: saline with Tween-80
  T/C: 94 % of control

## CC(=O)O/C(C#N)=C1\CCCC\C1=C(\C#N)OC(C)=O
[20]
  T/C: 103 % of control
[21]
  T/C: 107 % of control
[22]
  T/C: 103 % of control

## CC1=CC(=O)C(c2ccc(O)cc2O)=CC1=O
dose: 2.5 mg/kg/injection, schedule: Q01DX009 (ip), vehicle: saline with Tween-80
  T/C: 100 % of control
dose: 5.0 mg/kg/injection, schedule: Q01DX009 (ip), vehicle: saline with Tween-80
  T/C: 95 % of control
dose: 10.0 mg/kg/injection, schedule: Q01DX009 (ip), vehicle: saline with Tween-80
  T/C: 86 % of control

## CC(C)(C)n1nnnc1N
dose: 12.5 mg/kg/injection, schedule: Q01DX009 (ip), vehicle: Klucel (hydroxypropylcellulose) (HPC)
  T/C: 100 % of control
[14]
  T/C: 94 % of control
[15]
  T/C: 105 % of control and 112 % of control
dose: 200.0 mg/kg/injection, schedule: Q01DX009 (ip), vehicle: Klucel (hydroxypropylcellulose) (HPC)
  T/C: 103 % of control
